Reference: ChEMBL document CHEMBL5154935, “Design, Synthesis, and Biological Evaluation of Novel Evodiamine Derivatives as Potential Antihepatocellular Carcinoma Agents” (J Med Chem, 2022)
Active and inactive are the calls of the source. No cut-off for these calls is given here.

Key:
[1] = test system: HSC-T6; test: Antiproliferative activity against TGF-beta-1-stimulated rat HSC-T6 cells assessed as suppression of cell proliferation at 6.67 to 60 uM preincubated with TGFbeta-1 for 1 day followed by compound addition and measured after 48 hrs; format: functional, cell-based; conditions: dose 6.67-60 µM
[2] = Antiproliferative activity against human L02 cells treated for 72 hrs by MTT assay; format: toxicity, cell-based
[3] = Toxicity in BALB/c mouse xenografted with human Huh-7 cells assessed as histopathological change in liver at 10 mg/kg, ip qd for 11 days and measured after 12 days by hematoxylin and eosin staining based assay; format: organism-based; conditions: in vivo, 288 h, time 12 day
[4] = test system: Huh-7; test: Induction of apoptosis in human Huh-7 cells assessed as late apoptotic cells at 80 nM incubated for 24 hrs by annexin V-FITC/PI staining flow cytometry (reference value: 1.33 %); format: functional
[5] = test system: Huh-7; test: Induction of apoptosis in human Huh-7 cells assessed as viable cells at 80 nM incubated for 24 hrs by annexin V-FITC/PI staining flow cytometry (reference value: 97.3 %); format: functional; conditions: read-out: Activity
[6] = Induction of apoptosis in rat HSC-T6 cells assessed as late apoptotic cells at 80 nM pretreated with TGFbeta-1 for 1 day followed by compound addition and measured after 24 hrs by flow cytometry (reference value: 1.76 %); format: functional
[7] = Toxicity in BALB/c mouse xenografted with human Huh-7 cells assessed as histopathological change in kidney at 10 mg/kg, ip qd for 11 days and measured after 12 days by hematoxylin and eosin staining based assay; format: organism-based; conditions: in vivo, 288 h, time 12 day
[8] = Induction of apoptosis in rat HSC-T6 cells assessed as necrotic cells at 80 nM pretreated with TGFbeta-1 for 1 day followed by compound addition and measured after 24 hrs by flow cytometry (reference value: 0.56 %); format: functional
[9] = test system: HepG2; test: Antiproliferative activity against human HepG2 cells treated for 72 hrs by MTT assay; format: functional, cell-based; conditions: HepG2, 72 h
[10] = test system: SK-HEP1; test: Induction of apoptosis in human SK-Hep1 cells assessed as necrotic cells at 80 nM incubated for 24 hrs by annexin V-FITC/PI staining flow cytometry (reference value: 0.73 %); format: functional
[11] = test system: Huh-7; test: Antitumor activity against human Huh-7 cells xenografted in BALB/c mouse assessed as tumor growth inhibition at 10 mg/kg, ip qd for 11 days and measured every 2 days relative to control; format: functional; conditions: Huh-7, 264 h, time 11 day, read-out: TGI
[12] = test system: SK-HEP1; test: Induction of cell cycle arrest in human SK-Hep1 cells assessed as accumulation at G1 phase at 80 nM treated for 24 hrs by PI staining based flow cytometry (reference value: 58.47 %); format: functional
[13] = test system: SK-HEP1; test: Induction of apoptosis in human SK-Hep1 cells assessed as late apoptotic cells at 80 nM incubated for 24 hrs by annexin V-FITC/PI staining flow cytometry (reference value: 1.13 %); format: functional
[14] = test system: SMMC-7721; test: Antiproliferative activity against human SMMC-7721 cells treated for 72 hrs by MTT assay; format: functional, cell-based; conditions: SMMC-7721, 72 h
[15] = test system: SK-HEP1; test: Induction of cell cycle arrest in human SK-Hep1 cells assessed as accumulation at S phase at 80 nM treated for 24 hrs by PI staining based flow cytometry (reference value: 24.98 %); format: functional
[16] = Induction of apoptosis in rat HSC-T6 cells assessed as viable cells at 80 nM pretreated with TGFbeta-1 for 1 day followed by compound addition and measured after 24 hrs by flow cytometry (reference value: 97.5 %); format: functional; conditions: read-out: Activity
[17] = Toxicity in BALB/c mouse xenografted with human Huh-7 cells assessed as histopathological change in heart at 10 mg/kg, ip qd for 11 days and measured after 12 days by hematoxylin and eosin staining based assay; format: organism-based; conditions: in vivo, 288 h, time 12 day
[18] = test system: Huh-7; test: Induction of cell cycle arrest in human Huh-7 cells assessed as accumulation at G2 phase at 80 nM treated for 24 hrs by PI staining based flow cytometry (reference value: 15.90 %); format: functional
[19] = Induction of apoptosis in rat HSC-T6 cells assessed as early apoptotic cells at 80 nM pretreated with TGFbeta-1 for 1 day followed by compound addition and measured after 24 hrs by flow cytometry (reference value: 0.17 %); format: functional
[20] = test system: SK-HEP1; test: Induction of apoptosis in human SK-Hep1 cells assessed as viable cells at 80 nM incubated for 24 hrs by annexin V-FITC/PI staining flow cytometry (reference value: 97.8 %); format: functional; conditions: read-out: Activity
[21] = test system: SK-HEP1; test: Induction of apoptosis in human SK-Hep1 cells assessed as early apoptotic cells at 80 nM incubated for 24 hrs by annexin V-FITC/PI staining flow cytometry (reference value: 0.30 %); format: functional
[22] = test system: SK-HEP1; test: Induction of cell cycle arrest in human SK-Hep1 cells assessed as accumulation at G2 phase at 80 nM treated for 24 hrs by PI staining based flow cytometry (reference value: 16.55 %); format: functional
[23] = test system: HCCLM9; test: Antiproliferative activity against human HCCLM9 cells treated for 72 hrs by MTT assay; format: functional, cell-based; conditions: HCCLM9, 72 h
[24] = Toxicity in BALB/c mouse xenografted with human Huh-7 cells assessed as histopathological change in spleen at 10 mg/kg, ip qd for 11 days and measured after 12 days by hematoxylin and eosin staining based assay; format: organism-based; conditions: in vivo, 288 h, time 12 day
[25] = test system: SK-HEP1; test: Antiproliferative activity against human SK-HEP1 cells treated for 72 hrs by MTT assay; format: functional, cell-based; conditions: SK-HEP1, 72 h
[26] = test system: Huh-7; test: Antitumor activity against human Huh-7 cells xenografted in BALB/c mouse assessed as reduction in neo-vascularisation at 10 mg/kg, ip qd for 11 days and measured after 12 days by hematoxylin and eosin staining based assay; format: functional, organism-based; conditions: time 12.0 day
[27] = Toxicity in BALB/c mouse xenografted with human Huh-7 cells assessed as histopathological change in lung at 10 mg/kg, ip qd for 11 days and measured after 12 days by hematoxylin and eosin staining based assay; format: organism-based; conditions: in vivo, 288 h, time 12 day
[28] = test system: Huh-7; test: Induction of cell cycle arrest in human Huh-7 cells assessed as accumulation at S phase at 80 nM treated for 24 hrs by PI staining based flow cytometry (reference value: 23.33 %); format: functional
[29] = test system: Huh-7; test: Induction of cell cycle arrest in human Huh-7 cells assessed as accumulation at G1 phase at 80 nM treated for 24 hrs by PI staining based flow cytometry (reference value: 60.77 %); format: functional
[30] = test system: Huh-7; test: Antiproliferative activity against human Huh-7 cells treated for 72 hrs by MTT assay; format: functional, cell-based; conditions: Huh-7, 72 h
[31] = test system: Huh-7; test: Induction of apoptosis in human Huh-7 cells assessed as early apoptotic cells at 80 nM incubated for 24 hrs by annexin V-FITC/PI staining flow cytometry (reference value: 0.33 %); format: functional
[32] = test system: Huh-7; test: Induction of apoptosis in human Huh-7 cells assessed as necrotic cells at 80 nM incubated for 24 hrs by annexin V-FITC/PI staining flow cytometry (reference value: 1.08 %); format: functional
[33] = Toxicity in BALB/c mouse xenografted with human Huh-7 cells assessed as reduction in WBC levels at 10 mg/kg, ip qd for 11 days and measured on day 11; format: organism-based; conditions: in vivo, 264 h, time 11 day
[34] = target: T1, DNA topoisomerase 1 (Homo sapiens) (UniProt P11387); test: Inhibition of Top1 (unknown origin) assessed as inhibition of relaxation of supercoiled pBR322 plasmid DNA at 50 uM incubated for 25 mins by ethidium bromide staining based agarose gel electrophoresis analysis relative to control
T1 sequence (whole entry): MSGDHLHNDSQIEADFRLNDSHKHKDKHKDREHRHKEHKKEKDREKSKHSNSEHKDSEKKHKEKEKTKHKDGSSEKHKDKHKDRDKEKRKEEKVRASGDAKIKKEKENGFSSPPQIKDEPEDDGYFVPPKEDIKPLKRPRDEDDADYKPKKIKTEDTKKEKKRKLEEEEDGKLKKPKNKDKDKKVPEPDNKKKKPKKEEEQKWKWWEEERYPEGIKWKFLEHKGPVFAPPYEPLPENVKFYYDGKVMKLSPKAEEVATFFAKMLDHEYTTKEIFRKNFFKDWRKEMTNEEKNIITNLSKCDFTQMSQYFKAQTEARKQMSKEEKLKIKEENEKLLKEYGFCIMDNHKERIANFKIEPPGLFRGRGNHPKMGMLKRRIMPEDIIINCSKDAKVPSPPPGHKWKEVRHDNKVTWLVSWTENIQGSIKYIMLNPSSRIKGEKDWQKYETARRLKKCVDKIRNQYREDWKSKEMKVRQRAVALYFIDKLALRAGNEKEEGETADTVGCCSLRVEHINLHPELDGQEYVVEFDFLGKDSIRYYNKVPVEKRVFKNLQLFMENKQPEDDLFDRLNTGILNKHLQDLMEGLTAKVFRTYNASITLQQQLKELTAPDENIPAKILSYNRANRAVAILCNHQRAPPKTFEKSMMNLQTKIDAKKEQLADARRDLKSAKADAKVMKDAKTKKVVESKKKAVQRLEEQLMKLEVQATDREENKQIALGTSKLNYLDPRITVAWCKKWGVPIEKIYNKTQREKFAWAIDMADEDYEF

[35] = target: T1, DNA topoisomerase 1 (Homo sapiens); test: Inhibition of Top1 (unknown origin) assessed as inhibition of relaxation of supercoiled pBR322 plasmid DNA at 12.5 uM incubated for 25 mins by ethidium bromide staining based agarose gel electrophoresis analysis relative to control
[36] = target: DNA topoisomerase 2-alpha (Homo sapiens) (UniProt P11388); test: Inhibition of human Top2-alpha expressed in baculovirus assessed as inhibition of relaxation of supercoiled pBR322 plasmid DNA at 100 uM incubated for 30 mins in presence of ATP by ethidium bromide staining based agarose gel electrophoresis analysis relative to control
DNA topoisomerase 2-alpha (Homo sapiens), sequence (P11388 whole entry): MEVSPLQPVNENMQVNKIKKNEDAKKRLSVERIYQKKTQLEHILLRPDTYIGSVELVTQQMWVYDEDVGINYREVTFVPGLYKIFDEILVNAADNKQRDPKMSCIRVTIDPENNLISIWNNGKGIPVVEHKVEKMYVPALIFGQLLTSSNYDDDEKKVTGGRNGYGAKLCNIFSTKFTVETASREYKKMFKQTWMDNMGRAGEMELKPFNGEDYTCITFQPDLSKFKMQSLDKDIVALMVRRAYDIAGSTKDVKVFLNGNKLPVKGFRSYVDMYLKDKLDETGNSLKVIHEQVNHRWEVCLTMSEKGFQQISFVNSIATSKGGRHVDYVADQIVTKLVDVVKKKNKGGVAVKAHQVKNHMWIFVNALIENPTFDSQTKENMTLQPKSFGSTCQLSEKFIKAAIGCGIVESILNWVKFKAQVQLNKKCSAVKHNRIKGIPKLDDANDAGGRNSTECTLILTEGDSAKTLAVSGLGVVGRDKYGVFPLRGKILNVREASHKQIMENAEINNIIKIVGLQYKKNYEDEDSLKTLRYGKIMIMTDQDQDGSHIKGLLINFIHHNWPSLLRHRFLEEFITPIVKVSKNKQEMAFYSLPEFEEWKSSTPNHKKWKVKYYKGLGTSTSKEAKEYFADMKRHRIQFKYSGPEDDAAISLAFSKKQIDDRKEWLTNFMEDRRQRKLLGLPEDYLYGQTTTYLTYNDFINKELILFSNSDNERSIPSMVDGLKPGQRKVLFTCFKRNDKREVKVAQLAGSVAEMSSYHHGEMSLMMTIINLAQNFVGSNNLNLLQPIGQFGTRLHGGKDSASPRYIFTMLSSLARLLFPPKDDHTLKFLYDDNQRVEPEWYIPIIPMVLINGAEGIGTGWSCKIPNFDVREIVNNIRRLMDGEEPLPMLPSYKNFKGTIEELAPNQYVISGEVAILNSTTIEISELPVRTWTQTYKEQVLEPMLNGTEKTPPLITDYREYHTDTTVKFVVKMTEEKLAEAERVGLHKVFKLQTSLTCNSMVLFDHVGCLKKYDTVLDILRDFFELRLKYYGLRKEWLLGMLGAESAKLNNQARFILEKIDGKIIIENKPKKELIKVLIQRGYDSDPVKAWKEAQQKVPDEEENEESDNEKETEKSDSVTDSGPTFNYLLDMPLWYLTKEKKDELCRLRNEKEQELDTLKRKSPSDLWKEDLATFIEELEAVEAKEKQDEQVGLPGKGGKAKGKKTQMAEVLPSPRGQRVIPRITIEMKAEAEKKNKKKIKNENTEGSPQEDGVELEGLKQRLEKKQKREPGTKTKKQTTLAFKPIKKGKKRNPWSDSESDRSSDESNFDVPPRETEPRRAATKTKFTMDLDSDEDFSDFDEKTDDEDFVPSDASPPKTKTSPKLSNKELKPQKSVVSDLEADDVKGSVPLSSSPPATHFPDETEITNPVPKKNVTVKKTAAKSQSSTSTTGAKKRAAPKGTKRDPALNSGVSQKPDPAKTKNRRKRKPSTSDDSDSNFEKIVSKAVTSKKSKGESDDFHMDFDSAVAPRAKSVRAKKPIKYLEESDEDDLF

Row | SMILES | IC50 at 72 h [2] [nM] | Activity [4] [%] | viability at 0.08 µM [5] [%] | Activity [6] [%] | Activity [8] [%] | IC50 [9] [nM] | Activity [10] [%] | Activity [12] [%] | Activity [13] [%] | IC50 [14] [nM] | Activity [15] [%] | viability at 0.08 µM [16] [%] | Activity [18] [%] | Activity [19] [%] | viability at 0.08 µM [20] [%] | Activity [21] [%] | Activity [22] [%] | IC50 [23] [nM] | IC50 [25] [nM] | IC50 [30] [nM] | also measured
1 | CNC(=O)c1cc(Oc2ccc(NC(=O)Nc3ccc(Cl)c(C(F)(F)F)c3)cc2)ccn1 [SORAFENIB] | 5980 | 3.94 | 94.6 | 7.47 | 0.85 | 2100 | 1.32 | 60.47 | 3.5 | 2370 | 34.1 | 91.5 | 9.16 | 0.16 | 94.1 | 1.01 | 5.43 | 3150 | 1980 | 2600 | Activity [1]: Active; Activity [3]: Non-Toxic; Activity [7]: Non-Toxic; inhibition in vivo at 10 mg/kg [11]: 46.3%; Activity [17]: Non-Toxic; Activity [24]: Non-Toxic; Activity [26]: Active; Activity [27]: Non-Toxic; Activity [28]: 37.84%; Activity [29]: 53%; Activity [31]: 0.23%; Activity [32]: 1.18%
2 | CN1c2ccccc2C(=O)N2CCc3c([nH]c4ccccc34)C21 (centres undefined) | 3950 | 5.83 | 92 | 4.44 | 0.9 | 2670 | 1.01 | 60.43 | 2.79 | 3040 | 36 | 94.4 | 15.93 | 0.27 | 85 | 0.27 | 3.57 | 9270 | 2920 | 2180 | Activity [33]: Toxic; inhibition [34]: 63.4%; Activity [28]: 23.42%; inhibition [35]: 3.67%; Activity [29]: 60.65%; inhibition [36]: 48%; Activity [31]: 0.57%; Activity [32]: 1.64%
3 | Cc1ccc2[nH]c3c(c2c1)CCN1C(=O)c2cc(F)cc(F)c2N(c2cccc(F)c2)C31 (centres undefined) | 1400 |  |  |  |  | 510 |  |  |  | 490 |  |  |  |  |  |  |  | 310 | 480 | 20 | inhibition [34]: 83.7%; inhibition [35]: 7.29%; inhibition [36]: 67.6%
